Laboratory results as given in patent publication US10842807B2, “Methods of treating neurodegenerative disorders comprising DNA methyltransferase inhibitors” (Washington University, priority 2016, dated 2020).
Entries after “also recorded” stand apart in the source; their conditions may differ.

Experiments:
Assay type in all cases: cell-based, mouse
[1] = test system: Htt-72Q-expressing primary cortical neurons; experiment: MTS cell viability assay in Htt-expressing primary cortical neurons; conditions: for viability of Htt-72Q-expressing neurons (MTS assay): DIV 5 cortical neurons transduced with Htt lentivirus, treated with drug or DMSO (=0 μM), MTS at DIV 14, vs. Htt-72Q (0 μM)
Description: Mouse primary cortical and striatal neurons from embryonic day (E) 15.5 Swiss Webster mouse fetuses (Taconic) were first plated in the minimal essential medium (MEM) containing 10% FBS, 0.45% glucose, 1 mM sodium pyruvate, 2 mM glutamine, 20 U/ml penicillin and 20 μg/ml streptomycin, for 3 h and then maintained in serum-free Neurobasal medium (Life Technologies) containing NeuroCult™ SM1 neuronal supplement ([…] Technologies), 0.5 mM glutamine and 25 μM glutamate for the first 3 d in a humidified incubator (37° C. in 5% CO2). Half of the medium was replaced with Neurobasal medium with SM1 and 0.5 mM glutamine every 3 days. Primary cortical neurons plated on 96-well flat clear bottom black plates (Corning #3904) at 4×10^4 cells/well were infected with Htt exon1 expression lentivirus (Htt-25Q or Htt-72Q) or control empty vector lentivirus at 5 days in vitro (DIV 5). Primary striatal neurons plated on 96-well plates at 1×10^5 cells/well were infected with Htt exon1 expression lentivirus at DIV 4. Viral copy number was adjusted for transduction of neurons on the basis of titer measured using the Lenti-X qRT-PCR titration kit (Clontech), and equal numbers of viral particles of Htt-25Q and Htt-72Q expressing lentiviruses were used for transduction. For the experiments to test effects of DNMT inhibitors, neurons were treated with inhibitors six hours after Htt lentiviral infection. One half of the media was changed every 3 days with media containing new drug. In knockdown experiments in Htt-expressing neurons, primary cortical neurons were cotransduced with Htt-expressing lentivirus and Dnmt shRNA or control shRNA lentivirus at DIV 5. pLKO.1-TRC1-luciferase (Luci) and pLKO.1-TRC2-LacZ were used as control for RNAi with pLKO.1-TRC1-Dnmt3a and pLKO.1-TRC2-Dnmt1, respectively. Lentiviral particles were prepared by transfecting 293LE cells with the lentiviral plasmid of interest along with packaging plasmid psPAX2 and envelope plasmid pCMV-SVG as described previously^86. Four days after transfection, viruses in the conditioned media were collected and purified using Lenti-X Concentrator (Clontech). Primary cortical neurons from BACHD mouse embryos (E15.5) were individually plated into separate wells and treated at DIV 4 with decitabine or vehicle for 3.5 days.

[2] = test system: Htt-72Q-expressing primary striatal neurons; experiment: Neurofilament (NF) immunofluorescence, neurite degeneration in striatal neurons; conditions: DIV 4 striatal neurons transduced, fixed seven days later; vs. Htt-72Q (0 μM)
Description: Mouse primary cortical and striatal neurons from embryonic day (E) 15.5 Swiss Webster mouse fetuses (Taconic) were first plated in the minimal essential medium (MEM) containing 10% FBS, 0.45% glucose, 1 mM sodium pyruvate, 2 mM glutamine, 20 U/ml penicillin and 20 μg/ml streptomycin, for 3 h and then maintained in serum-free Neurobasal medium (Life Technologies) containing NeuroCult™ SM1 neuronal supplement ([…] Technologies), 0.5 mM glutamine and 25 μM glutamate for the first 3 d in a humidified incubator (37° C. in 5% CO2). Half of the medium was replaced with Neurobasal medium with SM1 and 0.5 mM glutamine every 3 days. Primary cortical neurons plated on 96-well flat clear bottom black plates (Corning #3904) at 4×10^4 cells/well were infected with Htt exon1 expression lentivirus (Htt-25Q or Htt-72Q) or control empty vector lentivirus at 5 days in vitro (DIV 5). Primary striatal neurons plated on 96-well plates at 1×10^5 cells/well were infected with Htt exon1 expression lentivirus at DIV 4. Viral copy number was adjusted for transduction of neurons on the basis of titer measured using the Lenti-X qRT-PCR titration kit (Clontech), and equal numbers of viral particles of Htt-25Q and Htt-72Q expressing lentiviruses were used for transduction. […]
For the measurement of neurofilament (NF) immunofluorescence intensity, cortical and striatal neurons cultured in a 96-well plate were fixed in 4% paraformaldehyde (PFA) in PBS for 20 min nine and seven days after Htt lentiviral infection, respectively, permeabilized with 0.1% Triton X-100 in PBS for 15 min at room temperature, and subjected to indirect immunofluorescence with anti-NF (2H3) primary antibody and Alexa Fluor 568-conjugated goat anti-mouse IgG secondary antibody (Life Technologies). […] Following image background subtraction, the NF immunofluorescence intensity was quantified using an ImageJ-based macro. Image capture and quantification of Htt (EM48) immunofluorescence intensity were performed as described for those of NF. […] About 300 nuclei from three random fields in a well were counted. […]

[3] = test system: Bdnf exon IV, VI, and IX transcripts; experiment: qRT-PCR of Bdnf exon transcripts in Htt-72Q cortical neurons; conditions: Htt-72Q-expressing cortical neurons; vs. Htt-72Q plus vehicle
Description: RNA was harvested 5 days later and subjected to qRT-PCR for total Bdnf (coding exon IX) using β-actin and 18S rRNA as reference genes. […] FIG. 3C depicts the schematic of the mouse Bdnf locus and the relative RNA levels of the Bdnf exons. White boxes, non-coding exons; gray box, coding exon. qRT-PCR was performed as in using exon-specific Bdnf primers. […] (FIG. 3G, FIG. 3H) Cortical neurons were co-transduced with lenti viruses expressing Htt and indicated shRNA and processed as in (FIG. 3C). […] (FIG. 3I) Primary cortical neurons from BACHD mice were treated with decitabine (0.2 μM) or vehicle for 3.5 days. qRT-PCR was performed using β-actin as a reference gene. […] Data are presented as mean+SEM.
Mouse primary cortical and striatal neurons from embryonic day (E) 15.5 Swiss Webster mouse fetuses (Taconic) were first plated in the minimal essential medium (MEM) containing 10% FBS, 0.45% glucose, 1 mM sodium pyruvate, 2 mM glutamine, 20 U/ml penicillin and 20 μg/ml streptomycin, for 3 h and then maintained in serum-free Neurobasal medium (Life Technologies) containing NeuroCult™ SM1 neuronal supplement ([…] Technologies), 0.5 mM glutamine and 25 μM glutamate for the first 3 d in a humidified incubator (37° C. in 5% CO2). Half of the medium was replaced with Neurobasal medium with SM1 and 0.5 mM glutamine every 3 days.

[4] = Htt-72Q cortical neurons, MTS assay (FIG. 1B)

Nc1ncn([C@H]2C[C@H](O)[C@@H](CO)O2)c(=O)n1 [decitabine, 5-aza-2′-deoxycytidine]
viability of Htt-72Q-expressing neurons (MTS assay) [1]: increased the viability of Htt-72Q-expressing neurons; also recorded: increased the viability of mutant Htt-expressing neurons
concentration giving nearly full protection [1, 4]: 0.2 µM
lowest concentration with significant neuroprotection [1, 4]: 0.02 µM
mutant Htt-induced neurite degeneration (NF immunofluorescence intensity), striatal neurons [2]: protected neurons from mutant Htt-induced neurite degeneration
expression of Bdnf exon IV, VI, and IX transcripts [3]: increased the expression of Bdnf exon IV, VI, and IX transcripts

Nc1nc(=O)n([C@H]2C[C@H](O)[C@@H](CO)O2)cc1F [FdCyd, 5-fluoro-2′-deoxycytidine]
viability of Htt-72Q-expressing neurons (MTS assay) [1]: increased the viability of Htt-72Q-expressing neurons
mutant Htt-induced neurite degeneration (NF immunofluorescence intensity), striatal neurons [2]: protected neurons from mutant Htt-induced neurite degeneration
expression of Bdnf exon IV, VI, and IX transcripts [3]: increased the expression of Bdnf exon IV, VI, and IX transcripts
